Assay results reported in patent US20120083599A1 (UNIVERSITY OF NOTTINGHAM, priority 2009, published 2012).
pKd: −log10 of the molar value. Read-outs that look alike come from different tables or passages of the source.

How the values were obtained:
[1] = test system: biotin ligase; conditions: cited from earlier work
[2] = biological target: T1, avidin (Gallus gallus, UniProt P02701); assay: Binding affinity for avidin by isothermal titration calorimetry
[3] = biological target: biotin ligase (BirA) (Escherichia coli, UniProt P06709); assay: Addition to acceptor peptide using BirA biotin ligase (HPLC); type: biochemical, E. coli; conditions: for Substrate for BirA: biotin ligase (BirA) from E. coli
[4] = biological target: T1, avidin; assay: Binding to avidin after click chemistry attachment of a fluorophore (native gel)
Protocol: 2) With protein (avidin) present: 0.29 mL 2-azidiobiotin solution (3.5 mM in Buffer A) was diluted in 0.71 mL Buffer A, then 1 mL avidin solution (0.21 mM) was added. The mixed solution was put in a shaker (25° C., 100 rpm) for 1 h. Then 0.5 mL alkynyl tag solution (10 mM in dioxane), 0.5 mL CuSO4-TTA solution (10 mM in ^tBuOH:H2O (4:1) solvents), 0.2 mL TCEP.HCl solution (50 mM in H2O), 0.5 mL NaHCO3 solution (200 mM in H2O), 0.25 mL ^tBuOH, 1 mL H2O were added to the reaction mixture. The mixture was put on the shaker (25° C., 100 rpm) for 2 h, then stored at 4° C. Buffer A: pH 7.4 20 mM phosphate, 150 mM NaCl buffer.

[5] = test system: other biotin ligases; conditions: cited from earlier work
[6] = biological target: BirA (Escherichia coli, UniProt P06709); conditions: cited from earlier work
[7] = biological target: T2, biotin ligase (Saccharomyces cerevisiae, UniProt P48445); conditions: cited from earlier work
T2 sequence (P48445 1-690): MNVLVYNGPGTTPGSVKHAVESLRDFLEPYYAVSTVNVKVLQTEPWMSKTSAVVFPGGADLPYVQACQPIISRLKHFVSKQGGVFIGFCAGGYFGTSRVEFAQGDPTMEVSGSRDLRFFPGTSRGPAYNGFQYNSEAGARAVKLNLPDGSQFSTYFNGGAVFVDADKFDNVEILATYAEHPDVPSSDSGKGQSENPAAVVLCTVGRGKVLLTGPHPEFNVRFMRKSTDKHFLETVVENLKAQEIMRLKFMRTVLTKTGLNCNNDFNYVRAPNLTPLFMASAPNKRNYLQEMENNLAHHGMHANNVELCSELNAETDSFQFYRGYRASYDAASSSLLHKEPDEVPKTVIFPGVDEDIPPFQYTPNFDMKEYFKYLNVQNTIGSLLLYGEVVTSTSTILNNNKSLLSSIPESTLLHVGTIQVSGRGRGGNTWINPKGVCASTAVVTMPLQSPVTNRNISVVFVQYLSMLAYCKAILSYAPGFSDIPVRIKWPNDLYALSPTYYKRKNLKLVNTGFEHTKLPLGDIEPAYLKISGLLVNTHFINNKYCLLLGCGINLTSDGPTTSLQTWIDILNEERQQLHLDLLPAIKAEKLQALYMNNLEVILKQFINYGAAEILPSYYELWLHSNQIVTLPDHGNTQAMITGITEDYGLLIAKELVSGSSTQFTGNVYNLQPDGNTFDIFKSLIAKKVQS

T1 sequence (P02701 25-152, species assumed): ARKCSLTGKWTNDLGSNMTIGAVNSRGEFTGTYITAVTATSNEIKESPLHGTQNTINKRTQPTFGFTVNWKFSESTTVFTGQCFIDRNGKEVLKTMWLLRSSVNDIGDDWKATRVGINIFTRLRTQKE
Chain of biotin ligase (BirA) (P06709 whole entry): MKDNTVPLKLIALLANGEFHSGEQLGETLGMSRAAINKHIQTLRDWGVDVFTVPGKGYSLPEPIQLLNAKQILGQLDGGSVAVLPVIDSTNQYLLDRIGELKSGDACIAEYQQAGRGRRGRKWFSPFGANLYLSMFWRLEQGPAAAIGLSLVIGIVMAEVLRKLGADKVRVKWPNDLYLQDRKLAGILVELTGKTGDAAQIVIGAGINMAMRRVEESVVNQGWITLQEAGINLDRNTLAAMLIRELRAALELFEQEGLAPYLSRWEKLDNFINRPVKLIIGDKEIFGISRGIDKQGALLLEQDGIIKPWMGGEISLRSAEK
Chain of BirA (P06709 whole entry): as above

Compound | Affinity for avidin (in words) [2] | Binds to avidin [2] | Substrate for BirA [3] | Binds to avidin once covalently modified [4] | Substrate for other biotin ligases [5] | other results
C[C@@H]1NC(=O)N[C@@H]1CCCCCC(=O)O [desthiobiotin] | – | – | – | – | – | Substrate of Pyrococcus horikoshii biotin ligase [1]: could use
[N-]=[N+]=NC(CCC[C@@H]1SC[C@@H]2NC(=O)N[C@@H]21)C(=O)O (stereo partly shown) [2-azidobiotin] | moderate-good affinity | Yes | Yes | able to binded to avidin | – | pKd ([2]; ITC, pH 7.4, 20 mM phosphate, 150 mM NaCl): ~7.00; Level of conversion to acceptor peptide adduct by BirA, compared with biotin ([3]; HPLC, 30 C, 1 h): very similar to that of biotin; Binds to avidin once covalently modified ([4]; listed as 2 Azidobiotin): Yes
O=C(O)CCCC[C@@H]1SC[C@@H]2NC(=O)N[C@@H]21 [biotin] | – | Yes | Yes | – | Yes | –
6-Azidodesthiobiotin | low affinities | Very weak | not substrates | No | – | Substrate for BirA ([3]; listed as E 6-azido-desthiobiotin): No
O=C(O)CCCC[C@@H]1SC[C@@H]2CC(=O)C[C@@H]21 [ketone biotin, Ketone biotin] | – | – | Yes | No | – | BirA ligation yield (product inhibition) [6]: ~50%
C#CCN1C(=O)N[C@H]2CS[C@@H](CCCCC(=O)O)[C@H]21 [cis-propargyl biotin] | – | No/very weak | No | No | Yes | Substrate of Saccharomyces cerevisiae biotin ligase [7]: could utilise; Substrate of Pyrococcus horikoshii biotin ligase [1]: could use
8-Azidodesthiobiotin | low affinities | Very weak | not substrates | No | Yes | Substrate for BirA ([3]; listed as D 8-azido-desthiobiotin): No
